{"source": "patent US20030207819A1", "about": "“Compositions and methods for treating inflammatory connective tissue diseases” (priority 2002, published 2003)", "assay_type_in_all_cases": "in vivo, human", "key": {"[1]": {"tested_on": "patient with undifferentiated connective tissue disease", "assay": "Example 6: clarithromycin trial, VAS and joint assessment", "conditions": "person", "text": "A patient, was first seen in September 1999. […] They have used a number of anti-inflammatory agents frequently for therapy.\nOn the basis of the findings, including recurrent episodes of arthritis, Raynaud's, and thickening of the hands, connective tissue disease diagnoses such as Mixed Connective Tissue Disease or Progressive Systemic Sclerosis were considered.\nBased on these findings, a diagnosis of Undifferentiated Connective Tissue Disease was made. Therapy was initiated with hydroxychloroquine ([…]®, Sanofi-Synthelabo, Inc.) and a non-steroidal anti-inflammatory agent. They utilized steroid dose packs periodically for symptomatic relief of their peripheral symptoms as well as their neck symptoms.\nOn examination, they had symptoms and findings much as before and a diagnosis of Undifferentiated Connective Tissue Disease was made. The patient agreed to undergo a trial with clarithromycin.\nFollowing screening and baseline evaluations, the patient was begun on clarithromycin (BIAXIN®, Abbott Laboratories).\n25, 2003 (“Visit 3”), for their first recheck visit.\nWhen seen for their one month evaluation, the patient had been off steroid medication for approximately ten days.\nFurther assessment of their status was made on Apr. 13, 2003 at which time they were now off steroids for almost a one-month period.\nPatient was again seen Apr. 21, 2003 (“Visit Four”), for their formal two-month follow-up on clarithromycin."}, "[2]": {"tested_on": "patient with undifferentiated connective tissue disease", "assay": "Example 1: clinical observation of patient on clarithromycin", "conditions": "person; switched from clarithromycin to azithromycin 500 mg day 1, 250 mg/day days 2 through 5", "text": "We elected to continue them on this antibiotic. […] Because the patient was on Lodine (NSAID) at the same time, we elected to see if they could stop the Lodine and still have relief of symptoms."}, "[3]": {"tested_on": "patient with low-grade connective tissue symptoms", "assay": "Example 5: clarithromycin study, VAS and joint assessment", "conditions": "person", "text": "In 1991, it was elected to begin the patient on hydroxychloroquine ([…]®, Sanofi-Synthelabo, Inc.) given their low-grade connective tissue symptoms not responding to non-steroidal anti-inflammatory therapy. […] A trial of hydroxychloroquine was again initiated to see how they would tolerate it. […] Hydroxychloroquine was discontinued when they wanted to attempt getting pregnant again. Therapy most recently consisted of non-steroidal inflammatory agents and physical therapy.\nOn Feb. 27, 2003, the patient agreed to participate in the clarithromycin study. […] The patient was begun on clarithromycin (BIAXIN®, Abbott Laboratories) 500 mg twice per day."}}}
{"smiles": "CC1(C)S[C@@H]2[C@H](NC(=O)[C@H](N)c3ccc(O)cc3)C(=O)N2[C@H]1C(=O)O", "note": "[amoxicillin]", "values": [{"measurement": "effect on pain", "setting": "[1]; amoxicillin tried on their own", "value": "of no help"}]}
{"smiles": "CC[C@H]1OC(=O)[C@H](C)[C@@H](O[C@H]2C[C@@](C)(OC)[C@@H](O)[C@H](C)O2)[C@H](C)[C@@H](O[C@@H]2O[C@H](C)C[C@H](N(C)C)[C@H]2O)[C@](C)(O)C[C@@H](C)CN(C)[C@H](C)[C@@H](O)[C@]1(C)O", "note": "[azithromycin]", "values": [{"measurement": "Symptoms", "setting": "[2]", "value": "no increase in symptoms"}]}
{"smiles": "CCN(CCO)CCCC(C)Nc1ccnc2cc(Cl)ccc12", "note": "(centres unmarked) [hydroxychloroquine]", "values": [{"measurement": "reason for discontinuation (adverse effect)", "setting": "[3]; hydroxychloroquine begun 1991, approximately nine months", "value": "weight loss"}, {"measurement": "symptomatic improvement", "setting": "[1]; hydroxychloroquine with a non-steroidal anti-inflammatory agent, approximately six months", "value": "did not feel significant improvement"}]}
{"smiles": "CCN(CC)CCCC(C)Nc1c2ccc(Cl)cc2nc2ccc(OC)cc12", "note": "(centres unmarked) [quinacrine]", "values": [{"measurement": "reason for discontinuation (skin colour)", "setting": "[3]; quinacrine approximately one year, non-toxic condition", "value": "too yellow"}]}
